Experimental data: PMC2074590 (British Journal of Cancer, 1996)
Read-outs that look alike come from different tables or passages of the source.

Experiments:
[1] = Serum concentrations of ICI 182780 by radioimmunoassay (pharmacokinetics of monthly i.m. depot); assay type: in vivo, human; details: for Cmax: human, serum, intramuscular; for Cmax / AUC at month 6 / AUC on entry: 250 mg;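 on AUC on entry: AUC over the first monthly dosing interval after the first injection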
Experimental: Bridsh Journal of Cancer (1996) 74, 300-308 ? […] The agent was administered as a monthly depot intramuscular injection. […] The study was approved by the ethics committees of each clinical centre. Patients were eligible for the study if they were post- menopausal and age less than 81 years, with histologically verified breast cancer. […] Patients were excluded if they had serious intercurrent disease, a WHO performance status of greater than 2, and a life expectancy of less than 3 months or had received previous cytotoxic chemotherapy for advanced breast cancer. […] Patients 5-19 received 250 mg month-1 i.m. from the outset. […] Tumour response to therapy was evaluated according to UICC criteria (Hayward et al., 1977). To qualify for the 'no change' category, tumour growth had to stabilise for more than 6 months (Howell et al., 1988; Robertson et al., 1989). Body weight was recorded at each monthly review in the majority of patients. […] The procedure was applied after solid base clean up of a diethyl ether/hexane extract of serum. The study limit of quantification was 0.68 ng ml-'. […] Gonadotrophins follicle-stimulating hormone and lutenising hormone (FSH and LH) and SHBG were measured by RIA in the Regional Radioimmunoassay Laboratory of the University Hospital of South Manchester. Prolactin was measured by immunoradiometric assay using reagents supplied by Netria. Total cholesterol levels were determined enzymatically using a commercially available reagent (Diamed, Switzerland). Triglyceride levels were determined by the glyceryl phosphate oxidase-peroxidase-antiperox- idase method using a commercially available kit (Boehringer Mannheim, Germany). High-density lipoprotein (HDL) cholesterol levels were measured after pretreatment of the serum samples with buffered magnesium phosphotungstate, which selectively precipitates low-density lipoprotein (LDL) cholesterol, very low-density lipoprotein (VLDL) cholesterol and chylomicrons, leaving HDL cholesterol in the super- natant. Serum levels of LDL cholesterol were calculated using the Friedewald equation (Friedewald et al., 1972). Endometrial assessment Endometrial thickness was measured in transverse section by transabdominal ultrasound using a Siemens Sonoline SL2 with a 3.5 MHz sector probe. Baseline and repeat scans at 3-6 monthly intervals were performed in five patients. […] Pharmacokinectic data were analysed using para- metric statistics. Data relating to body weight, serum gonadotrophin, SHBG and lipid levels were analysed using non-parametric statistics. The null hypothesis was rejected at a probability level of P<0.05. […] However, samples were not available between day 2 and day 8.

[2] = system: total cholesterol, LDL cholesterol, HDL cholesterol, triglyceride; assay: Serum lipid levels during treatment; assay type: in vivo, human; details: 12 patients
Experimental: Bridsh Journal of Cancer (1996) 74, 300-308 ? […] The agent was administered as a monthly depot intramuscular injection. […] The study was approved by the ethics committees of each clinical centre. Patients were eligible for the study if they were post- menopausal and age less than 81 years, with histologically verified breast cancer. […] Patients were excluded if they had serious intercurrent disease, a WHO performance status of greater than 2, and a life expectancy of less than 3 months or had received previous cytotoxic chemotherapy for advanced breast cancer. […] Patients 5-19 received 250 mg month-1 i.m. from the outset. […] Tumour response to therapy was evaluated according to UICC criteria (Hayward et al., 1977). […] Body weight was recorded at each monthly review in the majority of patients. […] The study limit of quantification was 0.68 ng ml-'. […] Gonadotrophins follicle-stimulating hormone and lutenising hormone (FSH and LH) and SHBG were measured by RIA in the Regional Radioimmunoassay Laboratory of the University Hospital of South Manchester. Prolactin was measured by immunoradiometric assay using reagents supplied by Netria. Total cholesterol levels were determined enzymatically using a commercially available reagent (Diamed, Switzerland). […] Serum levels of LDL cholesterol were calculated using the Friedewald equation (Friedewald et al., 1972). […]

ER = system: ER; design: method as in Wakeling et al., 1991; details: ref Wakeling et al., 1991; cited from earlier work
[3] = system: endometrial proliferation; design: method as in Dukes et al., 1993; details: primates, at serum concentrations similar to the present study; ref Dukes et al., 1993; cited from earlier work
[4] = patient 13 (progressive disease)

**Q.** What does the source list for C[C@]12CC[C@@H]3c4ccc(O)cc4C[C@@H](CCCCCCCCC[S+]([O-])CCCC(F)(F)C(F)(F)F)[C@H]3[C@@H]1CC[C@@H]2O (stereo partly shown) [ICI 182780, 7a-[9(4,4,5,5,pentafluoropentyl-sulphinyl)nonyl]oestra-1 ,3,5,(10)-triene-3,17,B-diol]?
**A.** Cmax ([1]; patient 14 (partial response), read-out: Cmax at month 6): 13.5 ng/mL; Cmax ([1]; patient 14 (partial response), read-out: Cmax on entry): 9.1 ng/mL; Cmax ([1]; patient 15 (no change), read-out: Cmax at month 6): 15.8 ng/mL; Cmax ([1]; patient 15 (no change), read-out: Cmax on entry): 9 ng/mL; Cmax ([1]; patient 16 (partial response), read-out: Cmax at month 6): 12 ng/mL; Cmax ([1]; patient 16 (partial response), read-out: Cmax on entry): 4.4 ng/mL; Cmax ([1]; patient 17 (no change), read-out: Cmax at month 6): 14.9 ng/mL; Cmax ([1]; patient 17 (no change), read-out: Cmax on entry): 9.5 ng/mL; Cmax ([1]; patient 18 (no change), read-out: Cmax at month 6): 10.2 ng/mL; Cmax ([1]; patient 18 (no change), read-out: Cmax on entry): 10.3 ng/mL; Cmax ([1]; patient 19 (no change), read-out: Cmax at month 6): 17.2 ng/mL; Cmax ([1]; patient 19 (no change), read-out: Cmax on entry): 11 ng/mL; Difference in median Cmax and AUC between responders and non-responders ([1]; in vivo): no significant difference; Increase in AUC on multiple dosing ([1]; month 6 vs month 1, 250 mg): 1.5 fold; Increase in Cmax on multiple dosing ([1]; month 6 vs month 1, 250 mg): 1.2 fold; Serum level at day 28 relative to threshold ([1]; monthly depot i.m., day 28): above the projected therapeutic threshold; Median AUC at month 6 ([1]; no change patients): 190.9 ng·days/mL; Median AUC on entry ([1]; no change patients): 131.6 ng·days/mL; Median AUC at month 6 ([1]; partial response patients): 191.0 ng·days/mL; Median AUC on entry ([1]; partial response patients): 118.7 ng·days/mL; AUC at month 6 ([1]; patient 2 (no change)): 135.8 ng·days/mL; AUC at month 6 ([1]; patient 3 (partial response)): 139.5 ng·days/mL; AUC at month 6 ([1]; patient 5 (partial response)): 203.0 ng·days/mL; AUC on entry ([1]; patient 5 (partial response)): 188.4 ng·days/mL; AUC on entry ([1]; patient 6 (partial response)): 118.3 ng·days/mL; AUC on entry ([1]; patient 7 (progressive disease)): 105.7 ng·days/mL; AUC at month 6 ([1]; patient 8 (partial response)): 175.2 ng·days/mL; AUC on entry ([1]; patient 8 (partial response)): 118.7 ng·days/mL; AUC on entry ([1]; patient 9 (progressive disease)): 138.2 ng·days/mL; AUC at month 6 ([1]; patient 10 (partial response)): 191.7 ng·days/mL; AUC on entry ([1]; patient 10 (partial response)): 206.6 ng·days/mL; AUC on entry ([1]; patient 11 (progressive disease)): 289.3 ng·days/mL; AUC at month 6 ([1]; patient 12 (no change)): 179.3 ng·days/mL; AUC on entry ([1]; patient 12 (no change)): 143.6 ng·days/mL; AUC at month 6 [1, 4]: 243.7 ng·days/mL; AUC on entry [1, 4]: 36.7 ng·days/mL; AUC at month 6 ([1]; patient 14 (partial response)): 266.0 ng·days/mL; AUC on entry ([1]; patient 14 (partial response)): 134.6 ng·days/mL; AUC at month 6 ([1]; patient 15 (no change)): 201.7 ng·days/mL; AUC on entry ([1]; patient 15 (no change)): 107.8 ng·days/mL; AUC at month 6 ([1]; patient 16 (partial response)): 190.8 ng·days/mL; AUC on entry ([1]; patient 16 (partial response)): 72.8 ng·days/mL; AUC at month 6 ([1]; patient 17 (no change)): 297.6 ng·days/mL; AUC on entry ([1]; patient 17 (no change)): 125.5 ng·days/mL; AUC at month 6 ([1]; patient 18 (no change)): 156.1 ng·days/mL; AUC on entry ([1]; patient 18 (no change)): 183.2 ng·days/mL; AUC at month 6 ([1]; patient 19 (no change)): 308.0 ng·days/mL; AUC on entry ([1]; patient 19 (no change)): 137.8 ng·days/mL; Median AUC on entry ([1]; progressive disease patients): 79.4 ng·days/mL; Change in serum lipids (total cholesterol, LDL cholesterol, HDL cholesterol, triglyceride) [2]: no significant changes; Potency and affinity for the ER relative to ICI 164384 (ER): greater potency and affinity for the ER; Effect on endometrial proliferation [3]: inhibited endometrial proliferation
